Patent US12370235B2, “Synthetic, non-natural antimicrobial peptides inspired by Staphylococcus auricularis delta toxin” (University of Saskatchewan, priority 2021, dated 2025)
In brackets after ≈: the same amount, converted by molar mass. Ends that are not written are not given here. Peptide text beside a SMILES is read from it. * marks the point of attachment. For = O=C*

Legend:
C. albicans MYA-2876 = test: MIC, YPD broth; format: cell-based, Candida albicans; details: Table 8
Procedure, shortened: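 Minimum inhibitory concentrations against Candida albicans were determined in YPD broth (10 g/L yeast extract, 20 g/L peptone, 20 g/L dextrose) using peptides of 95% purity. A 180 μl volume of diluted yeast was combined with 20 μl of peptide in a 2-fold dilution series in 96-well plates, with sterile water as control, then incubated standing overnight at 37° C.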

[1] = test system: S. aureus ATCC BAA-42 (MRSA SCCmec type VI); test: MIC, broth dilution; format: cell-based, Staphylococcus aureus; details: Table 5; STIP3 variants, highest concentration 100 μg/mL
Procedure, shortened: (§1)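 Peptides (95% purity) were serially diluted 2-fold and mixed with bacteria diluted to OD 6×10^−4 in cation-adjusted Mueller Hinton broth. Standing cultures were incubated overnight at 37° C. MIC was the lowest peptide concentration with no observed growth.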

[2] = test system: S. aureus ATCC BAA-44 (MRSA SCCmec type I); test: MIC, broth dilution; format: cell-based, Staphylococcus aureus; details: Table 5; STIP3 variants, highest concentration 100 μg/mL
Procedure, shortened: as §1

S. aureus ATCC 29213 = test: MIC, broth dilution; format: cell-based, Staphylococcus aureus
Procedure, shortened: as §1

[3] = test system: S. aureus ATCC BAA-2094 (MRSA SCCmec type V); test: MIC, broth dilution; format: cell-based, Staphylococcus aureus; details: Table 5; STIP3 variants, highest concentration 100 μg/mL
Procedure, shortened: as §1

[4] = test system: S. aureus ATCC BAA-41 (MRSA SCCmec type II); test: MIC, broth dilution; format: cell-based, Staphylococcus aureus; details: Table 5; STIP3 variants, highest concentration 100 μg/mL
Procedure, shortened: as §1

[5] = test system: S. aureus ATCC 33592 (MRSA SCCmec type III); test: MIC, broth dilution; format: cell-based, Staphylococcus aureus; details: Table 5; STIP3 variants, highest concentration 100 μg/mL
Procedure, shortened: as §1

[6] = test system: S. aureus ATCC BAA-2313 (MRSA SCCmec type XI); test: MIC, broth dilution; format: cell-based, Staphylococcus aureus; details: Table 5; STIP3 variants, highest concentration 100 μg/mL
Procedure, shortened: as §1

SspA protease = SspA protease (Staphylococcus aureus, UniProt P0C1U8); test: SspA protease treatment, LC/MS analysis; format: in vitro ADME; details: in vitro, 37° C., ˜5 hours
Method: SspA protease treatment. SspA protease was resuspended at 2 mg/mL in 100 mM HEPES, pH 7.8. Proteolysis was achieved by incubation of 50 μg PSMs at 37° C. for ˜5 hours with 0.2 mg/mL SspA. The antimicrobial activity of the proteolytic products were assayed by spotting a 5 μL (˜45 μg) from each treated peptide on each test microorganism as described above.
HPLC/MS analysis. High performance liquid chromatography coupled to mass spectrometry (HPLC-MS) was conducted to assess the proteolytic cleavage of synthetic PSMs by the SspA protease, as described above. Both treated samples and untreated controls were incubated at 37° C. for 5 hours, and then frozen until HPLC/MS analysis. An Agilent Infinity II 1260 HPLC outfitted with a Phenomenex Lune C5 column (4.6×150 mm, 5 μm) was used to separate the peptide fragments using a binary solvent system consisting of solvent A (water, 0.05% formic acid) and solvent B (acetonitrile, 0.05% formic acid) operating at 0.7 mL/min. A 5 μl volume (˜4.5 μg) of each sample was injected at 10% solvent B, followed by a two-step gradient elution from 10 to 50% solvent B in 30 minutes, then 50 to 100% B in 10 minutes. The HPLC was coupled to an Advion CMS(L) single quadrupole mass detector through an electrospray ionization source. A line splitter from the HPLC to ESI source was used to deliver sample to the mass detector at 0.3 mL/min. An Advion expression-L CMS detector was used at low temperature and fragmentation settings: capillary temperature: 135° C., capillary voltage 120 V, source voltage offset 20 V, source gas temperature 135° C. and ESI voltage 3500 V. The range of ions detected was between 100 and 2,000 m/z.

HeLa cells = format: cell-based; details: 24 h, alamarBlue
Method: Peptide cytotoxicity. In vitro cytotoxicity was measured using the 3D EpiDerm skin tissues and HeLa Cells using a fluorescent reporter of cell viability, alamarBlue (ThermoFisher Scientific). 3D EpiDerm skin tissues (MatTek EPI-200-AFAB) were transferred to a 12 well plate containing 600 μL of AFAB-assay medium supplemented with 10% v/v alamarBlue. […] HeLa cells were seeded in a 96-well plate (2×10^4 cells/per well) and incubated overnight at 37° C. and 5% CO2 in a humidified incubator to prepare wells at ˜50% confluency of adherent cells. After the incubation, spent DMEM was removed and cells were washed with PBS. alamarBlue-containing medium was prepared by mixing Phenol Red-free DMEM with alamarBlue solution at a 9:1 ratio and a 180 μl volume was added to each well. Cells were treated with peptides varying from 3.25 to 200 μg/mL and then incubated for 24 h. The fluorescence intensities of treated cultures were normalized to values measured for an untreated control group. After the 24 h incubation period, alamarBlue fluorescence was measured at 590 nm upon excitation at 560 nm using Varioskan Lux plate reader (Thermo Scientific) plate reader.

[7] = test system: Saccharomyces cerevisiae AR 400; test: MIC, YPD broth, CDC and FDA AR Candida isolate panel; format: cell-based; details: Table 9 top part: titrations from 1.56 to 100 μg/mL
Procedure, shortened: (§2)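 Broth microdilution in YPD; yeast diluted to optical density […] and mixed with 2-fold serial dilutions of peptide (95% purity), water control. Standing cultures incubated overnight at 37 °C.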

[8] = test system: Saccharomyces cerevisiae AR 399; test: as above; format: cell-based; details: Table 9 top part: titrations from 1.56 to 100 μg/mL
Procedure, shortened: as §2

[9] = test system: Candida lusitaniae AR 398; test: as above; format: cell-based; details: Table 9 top part: titrations from 1.56 to 100 μg/mL
Procedure, shortened: as §2

Candida krusei AR 397 = test: as above; format: cell-based; details: Table 9 top part: titrations from 1.56 to 100 μg/mL
Procedure, shortened: as §2

M. luteus ATCC 4698 = test: MIC, broth dilution; format: cell-based, Micrococcus luteus; details: Table 4; liquid broth
Procedure, shortened: as §1

[10] = Circular dichroism spectroscopy; format: physicochemical; details: CD, 50% (v/v) TFE
Procedure, shortened: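 Secondary structure of peptides dissolved in water at 0.3–0.5 mg/mL was assessed by CD. Spectra were recorded from 180 to 260 nm at room temperature in a 0.1 cm quartz cuvette; water and 50% (v/v) TFE conditions were compared.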

Kodamae ohmeri AR 396 = test: MIC, YPD broth, CDC and FDA AR Candida isolate panel; format: cell-based; details: Table 9 top part: titrations from 1.56 to 100 μg/mL
Procedure, shortened: as §2

[11] = test system: Candida duobushaemulonii AR 392; test: as above; format: cell-based; details: Table 9 top part: titrations from 1.56 to 100 μg/mL
Procedure, shortened: as §2

[12] = test system: Mannheimia haemolytica ATCC 33393; test: MIC, broth dilution; format: cell-based; details: Table 11; highest concentration 25 μg/mL
Procedure, shortened: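 Peptides (95% purity) in 2-fold dilution series were mixed with M. haemolytica diluted to OD 6×10^−4 in cation-adjusted Mueller Hinton broth and incubated standing overnight at 37 °C. MIC was the lowest concentration with no visible growth.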

Sequence of SspA protease (P0C1U8 69-336): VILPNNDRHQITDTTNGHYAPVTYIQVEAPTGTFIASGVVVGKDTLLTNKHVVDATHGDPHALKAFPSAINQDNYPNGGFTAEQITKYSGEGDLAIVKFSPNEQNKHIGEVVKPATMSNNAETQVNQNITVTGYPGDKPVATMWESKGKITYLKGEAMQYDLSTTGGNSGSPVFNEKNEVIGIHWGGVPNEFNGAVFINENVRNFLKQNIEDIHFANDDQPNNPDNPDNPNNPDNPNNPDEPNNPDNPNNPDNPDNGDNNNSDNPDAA

Compound	MIC C. albicans MYA-2876 (C. albicans MYA-2876)	MIC S. aureus ATCC BAA 42 (VI) [1] [µg/mL]	MIC S. aureus ATCC BAA 44 (I) [2] [µg/mL]	MIC (μg/mL) S. aureus (S. aureus ATCC 29213; Table 4, liquid broth) [µg/mL]	MIC S. aureus ATCC 29213 (S. aureus ATCC 29213; Table 5, STIP3 variants, highest concentration 100 μg/mL) [µg/mL]	MIC S. aureus ATCC BAA 2094 (V) [3] [µg/mL]	MIC S. aureus ATCC BAA 41 (II) [4] [µg/mL]	MIC S. aureus ATCC 33592 (III) [5] [µg/mL]	MIC S. aureus ATCC BAA 2313 (XI) [6] [µg/mL]	susceptibility to SspA cleavage (SspA protease)	IC50, HeLa cell survival (HeLa cells) [µg/mL]	MIC (μg/mL) Saccharomyces cerevisiae AR 400 [7] [µg/mL]	MIC (μg/mL) Saccharomyces cerevisiae AR 399 [8] [µg/mL]	MIC (μg/mL) Candida lusitaniae AR 398 [9] [µg/mL]	MIC (μg/mL) Candida krusei AR 397 (Candida krusei AR 397) [µg/mL]	MIC (μg/mL) M. luteus (M. luteus ATCC 4698) [µg/mL]	α helicity (%) [10] [%]	MIC (μg/mL) Kodamae ohmeri AR 396 (Kodamae ohmeri AR 396)	MIC (μg/mL) Candida duobushaemulonii AR 392 [11]	MIC (μg/mL) M. haemolytica [12]
TVGGLVKWILDTVKKFA [STIP3-1, TVGGLVKWILDTVKKFA]	25 µg/mL	100	100	100	100	100	100	100	100	cleave the bioactive peptide into an inactive mixture	200 ± 30	12.5	50	100	25	12.5				
CC[C@H](C)[C@H](NC(=O)[C@H](Cc1c[nH]c2ccccc12)NC(=O)[C@H](CCCCN)NC(=O)[C@@H](NC(=O)[C@H](CC(C)C)NC(=O)CNC(=O)CNC(=O)[C@@H](NC(=O)[C@@H](NC(=O)[C@H](CCC(=O)O)NC(=O)[C@@H](NC(=O)[C@@H](NC(=O)[C@H](CC(=O)O)NC(=O)[C@H](CCCCN)NC(=O)[C@@H](NC(=O)[C@H](CCSC)NC=O)[C@@H](C)O)[C@@H](C)CC)C(C)C)[C@@H](C)O)C(C)C)C(C)C)C(=O)N[C@@H](CC(C)C)C(=O)N[C@@H](CC(=O)O)C(=O)N[C@H](C(=O)N[C@H](C(=O)N[C@@H](CCCCN)C(=O)N[C@@H](CCCCN)C(=O)N[C@@H](Cc1ccccc1)C(=O)N[C@@H](C)C(=O)O)C(C)C)[C@@H](C)O [δ-toxin, reference compound] (For-MTKDIVETVGGLVKWILDTVKKFA-OH)	> (> symbol indicates that no inhibition was observed at the highest concentration of peptide tested: 100 μg/mL)									formylation protected against proteolysis	230 ± 30 (≈ 84.6 µM)						88	> (MIC values reported at the top of the table (above the double line) are based on titrations from 1.56 to 100 μg/mL)	> (MIC values reported at the top of the table (above the double line) are based on titrations from 1.56 to 100 μg/mL)	> (> symbol indicates that no inhibition was observed at the highest concentration of peptide tested: 25 μg/mL)
